According to publication PMC11813147, “Bioactivity assessment of peptides derived from salted jellyfish (Rhopilema hispidum) byproducts” (PLOS ONE, 2025):

How the values were obtained:
[1] = system: angiotensin I-converting enzyme (ACE); assay: ACE inhibitory activity assay (fluorometric ACE activity assay kit); type: biochemical
Method: The ACE inhibitory activity assay was performed following the method outlined by Batista et al., with slight modifications, using a fluorometric angiotensin I-converting enzyme (ACE) activity assay kit from Sigma-Aldrich (catalog number CS0002), Burlington, Massachusetts, USA. In summary, 10 µ L of the sample (1 mg/mL for the peptide sample and 50 µg/mL for ramipril) was combined with 40 µ L of the ACE solution (CS0002B) in 96-well flat-bottom black plates at 37 °C for 5 min. Next, 50 µ L of the substrate solution (CS0002C) was added to this mixture to initiate the reaction. A fluorescence multiwell plate reader was used to monitor the changes in fluorescence. The sample’s fluorescence was measured every min for 5 min, with excitation at 320 nm and emission at 405 nm. All reagents, except the test sample, were prepared to assess the ACE positive control activity. A kit standard solution (CS0002D) was diluted with assay buffer (CS0002A) to create different concentrations (nmol) of the standard solution, allowing generation of a standard curve. The slope of the standard curve (RFU/nmol) and the slope of the sample kinetic curve were utilized to calculate the ACE activity using the following equation (3):
ACEactivitynmol/min=Slopesample/Slopestandard×DF (3)
Where Slopesample refers to the slope of the blank-subtracted sample curve (RFU/min), Slopestandard refers to the slope of the blank-subtracted standard curve (RFU/nmol), DF is the dilution factor, and 0.1 nmol/min is equivalent to […].
In this study, the results of ACE inhibitory activity are expressed as percentages. The ACE inhibitory activity (%) was calculated using the following equation (4):
ACEinhibitoryactivity%=ACEPC–ACES/ACEPC×100 (4)
Where ACEPC represents the ACE activity of the positive control, and ACES denotes the ACE activity of the sample.

[2] = system: RAW 264.7; assay: Cytotoxicity assessment (MTT); type: cell-based, Murine; conditions: peptide 10 µg/mL, 72 h
Method: (§1) Murine macrophage cells (RAW 264.7; ATCC TIB-71™) were cultured in Dulbecco’s Modified Eagle’s Medium (DMEM) that was supplemented with 10% heat-inactivated fetal bovine serum (FBS) and 1% antibiotic solution. Colorectal adenocarcinoma cells (CaCo-2; ATCC HTB 37™) were cultured in Eagle’s Minimum Essential Medium (EMEM), also supplemented with 10% heat-inactivated FBS and 1% antibiotic solution. Both cell types were maintained in a humidified incubator with 5% CO2. The cell culture medium was refreshed every three days.
Cytotoxicity assessment was performed following the method described by Yang et al., with slight modifications. RAW 264.7 was seeded with 1 x 10^5 cells in a 96-well plate with an appropriate cell culture medium. After allowing the cells to attach, the medium was replaced with a fresh cell culture medium containing the peptide samples at a concentration of 10 µg/mL. The treated cells were incubated for an additional 72 h. At the designated time, fresh medium was added, which included 3-(4,5-dimethylthiazol-2-yl)-2,5-diphenyltetrazolium bromide (MTT) at a concentration of 0.5 mg/mL. After 3 h, formazan crystals were observed. The medium was then removed, and the crystals were dissolved in 100% dimethyl sulfoxide (DMSO). A microplate reader (Synergy HTX; Biotek, Multi-Mode Reader, Winooski, VT, USA) was utilized to measure the absorbance at 570 nm (measurement wavelength) and 630 nm (reference wavelength). The percentage of cell viability was calculated relative to untreated cells using the following equation (5):
Cellviability%=ODtreatment–ODblank/ODuntreated–ODblank×100 (5)
Where ODtreatment is the absorbance of the treated sample, ODuntreated is the absorbance of the untreated sample, and ODblank is the absorbance from wells without treated and untreated samples.

[3] = DPPH radical scavenging assay; type: biochemical; conditions: supplement tables; for DPPH, mean±SD: n = 3
Method: The DPPH radical scavenging activity of the sample was assessed following a modified protocol based on a previous study. In each well of a 96-well plate, 10 μL of the sample was added, followed by 190 μL of 0.1 mM DPPH solution in 70% ethanol. The mixture was then incubated at room temperature in the dark for 30 min. After the incubation period, the absorbance of the mixture was measured at 517 nm. The DPPH radical scavenging activity was calculated using the following equation (1):
DPPHradicalscavengingactivity%=Acontrol–Asample/Acontrol×100 (1)
In this equation, Acontrol represents the absorbance of a control solution containing all reagents except for the test samples, while Asample is the absorbance of the mixture (the sample combined with 0.1 mM DPPH). To determine the Trolox equivalent antioxidant capacity (TEAC), a Trolox standard curve was utilized. The results were expressed as millimoles of Trolox equivalents per milligram of protein (mM TE/mg protein).

[4] = Ferric reducing antioxidant power (FRAP) assay; type: biochemical
Method: The FRAP assay was conducted following the method outlined by Rumpf et al.. The FRAP solution was prepared by mixing 300 mM acetate buffer (pH 3.6), 10 mM TPTZ (2,4,6-Tris(2-pyridyl)-s-triazine) in 40 mM hydrochloric acid, and 20 mM FeCl3 in a ratio of 10:1:1. In a 96-well plate, 10 μL of the sample was combined with 190 μL of the FRAP solution and incubated in the dark for 15 min. The absorbance of the mixture was then measured at 593 nm. FeSO4 was used to create the standard curve, and the results were expressed as millimoles of FeSO4 equivalent per milligram of protein (mM FeSO4/mg protein).

[5] = system: RAW 264.7; assay: Anti-inflammation assay: released NO in LPS-stimulated RAW 264.7 (Griess); type: cell-based, Murine; conditions: then 1 µg/mL LPS 24 h; for Released NO: peptide 10 µg/mL 1 h; for Released NO, mean±SD: peptide 10 µg/mL pre-treatment 1 h, Griess reagent, n = 3
Method: as §1
The anti-inflammation assay was conducted following the method described by Barzkar et al. with slight modifications. RAW 264.7 (1 x 10^5 cells) was seeded into a 96-well plate to allow for cell attachment. After 24 h, the cells were pre-treated with fresh medium containing peptide samples at a concentration of 10 µg/mL for 1 h. Subsequently, the treated cells were stimulated with 1 µg/mL lipopolysaccharide (LPS) for an additional 24 h. Unstimulated cells were included as a negative control. At the end of the treatment period, the conditioned medium was collected for the determination of released nitric oxide (NO). Griess’s reagent (Promega) was utilized to measure the NO concentration, following the manufacturer’s instructions. A NO calibration curve was generated to quantify the released NO in the conditioned medium.

[6] = ABTS radical scavenging assay; type: biochemical; conditions: supplement tables; for ABTS, mean±SD: n = 3
Method: The ABTS radical scavenging activity of the sample was measured using a method adapted from Mirzaei et al.. The ABTS radical was generated by mixing 7 mM ABTS with 2.45 mM potassium persulfate in a 1:1 ratio and incubating the mixture in the dark at room temperature for 12 to 16 h. The resulting solution was then diluted to achieve an absorbance of 0.74 ± 0.03 at 734 nm, using deionized water for adjustments. Next, 10 μL of the sample was added to 190 μL of the ABTS solution. The mixture was incubated in the dark for 7 min, after which the absorbance was measured at 734 nm. The ABTS radical scavenging activity (%) was calculated using the following equation (2):
ABTSradicalscavengingactivity%=Acontrol–Asample/Acontrol×100 (2)
In this equation, Acontrol refers to the absorbance of the control solution (which contains all reagents except the test samples), while Asample refers to the absorbance of the mixture containing the sample and the ABTS solution. To determine the Trolox equivalent antioxidant capacity (TEAC), a Trolox standard curve was used, and the results were expressed as millimoles of Trolox equivalents per milligram of protein (mM TE/mg protein).

[7] = 10 µL sample + 190 µL FRAP solution, 15 min dark, 593 nm, FeSO4 standard curve, mean ± SD, n = 3, SD
[8] = peptide sample 1 mg/mL, 37 °C, fluorescence ex 320/em 405 nm, mean ± SD, n = 3, SD
[9] = peptide sample 1 mg/mL, replicate 1
[10] = peptide sample 1 mg/mL, replicate 2
[11] = peptide sample 1 mg/mL, replicate 3

Compound | Cell viability ([2]; replicate 1) | Cell viability ([2]; replicate 2) | Cell viability ([2]; replicate 3) | DPPH, mean±SD [3] | DPPH ([3]; replicate 1) | DPPH ([3]; replicate 2) | DPPH ([3]; replicate 3) | FRAP ([4]; supplement tables, replicate 1) | FRAP ([4]; supplement tables, replicate 2) | FRAP ([4]; supplement tables, replicate 3) | ACE inhibitory activity [1, 9] | ACE inhibitory activity [1, 10] | ACE inhibitory activity [1, 11] | Released NO ([5]; replicate 1) | Released NO ([5]; replicate 2) | Released NO ([5]; replicate 3) | Released NO, mean±SD [5] | ABTS, mean±SD [6] | ABTS ([6]; replicate 1) | ABTS ([6]; replicate 2) | also measured
CCOC(=O)[C@H](CCc1ccccc1)N[C@@H](C)C(=O)N1[C@H](C(=O)O)C[C@@H]2CCC[C@@H]21 [Ramipril, ramipril, reference compound] | – | – | – | – | – | – | – | – | – | – | – | – | – | – | – | – | – | – | – | – | ACE inhibitory activity, mean±SD ([1]; ramipril 50 µg/mL, mean ± SD, n = 3, SD): 23.23±0.44^G %; ACE inhibitory activity, mean±SD ([1]; ramipril 50 µg/mL, mean ± SD, n = 3, listed as ramipril, SD): 23.23 ± 0.44%; ACE inhibitory activity ([1]; ramipril 50 µg/mL, replicate 1): 22.79%; ACE inhibitory activity ([1]; ramipril 50 µg/mL, replicate 2): 23.23%; ACE inhibitory activity ([1]; ramipril 50 µg/mL, replicate 3): 23.67%
EIILIPMF [P3, synthesized peptide identified from jellyfish fraction PUR20C] | 75.57% | 75.92% | 75.39% | 2.93 TE/mg protein | 2.84 TE/mg protein | 2.58 TE/mg protein | 3.37 TE/mg protein | 9.31 mM FeSO4/mg protein | 9.31 mM FeSO4/mg protein | 9.10 mM FeSO4/mg protein | 33.58% | 33.87% | 34.16% | 37.58 µM | 35.17 µM | 37.24 µM | 36.66 ± 1.30 µM | 3.17 TE/mg protein | 3.31 TE/mg protein | 2.71 TE/mg protein | FRAP [4, 7]: 9.24±0.12 mM FeSO4/mg protein; ACE inhibitory activity, mean±SD [1, 8]: 33.87±0.28^E %; ABTS ([6]; replicate 3): 3.51 TE/mg protein
LMFMAVAFF [P12, synthesized peptide identified from jellyfish fraction PUR20C] | 76.97% | 73.98% | 74.86% | 2.75 TE/mg protein | 2.58 TE/mg protein | 2.58 TE/mg protein | 3.11 TE/mg protein | 16.26 mM FeSO4/mg protein | 17.31 mM FeSO4/mg protein | 16.68 mM FeSO4/mg protein | 49.61% | 43.60% | 49.33% | 36.89 µM | 38.62 µM | 40.00 µM | 38.50±1.55^B µM | 0.64±0.30^M TE/mg protein | 0.90 TE/mg protein | 0.30 TE/mg protein | FRAP [4, 7]: 16.75±0.52^B mM FeSO4/mg protein; ACE inhibitory activity, mean±SD [1, 8]: 47.51±3.39^D %; ABTS ([6]; replicate 3): 0.70 TE/mg protein
NFTVLCDSLE [P10, synthesized peptide identified from jellyfish fraction PUR20C] | 85.41% | 84.35% | 86.29% | 45.99±1.10^B TE/mg protein | 46.34 TE/mg protein | 44.75 TE/mg protein | 46.87 TE/mg protein | 20.05 mM FeSO4/mg protein | 21.10 mM FeSO4/mg protein | 18.36 mM FeSO4/mg protein | 11.25% | 9.82% | 8.39% | 35.86 µM | 35.17 µM | 38.27 µM | 36.43 µM | 98.00±0.50^G TE/mg protein | 97.47 TE/mg protein | 98.07 TE/mg protein | Cell viability, mean±SD ([2]; relative to untreated cells, mean ± SD, n = 3, SD): 85.35%; inhibition [1, 8]: 9.82 ± 1.43%; ABTS ([6]; replicate 3): 98.47 TE/mg protein
